What was measured:
LLC-PK1 cells = assay: Conventional transport assay (CTA), diffusion over a cellular monolayer; type: in vitro ADME, porcine; conditions: zosuquidar present, both directions, 100 nM
Description: We first sought to investigate whether buparlisib (Fig. 1A) is transported by P-gp or BCRP in vitro using concentration equilibrium transport assays (CETAs). CETAs are sensitive assays to determine translocation over a cellular monolayer and are frequently used to determine substrate affinity for ABC transporters by comparing cell lines that overexpress ABC transporters with their parental counterparts[24]–[26]. Since P-gp and BCRP are apically located transporters, a prerequisite for detecting substrate affinity for these transporters in a CETA is the capacity of a molecule to penetrate cell membranes. We therefore first confirmed that buparlisib could efficiently diffuse over a cellular monolayer using a conventional transwell set-up. […]
(§1) Conventional bidirectional transport assays (CTAs) and concentration equilibrium transport assays (CETAs) were performed as described previously. […] Transwell leakiness was determined as Carboxyl-[^14C]-inulin translocation exceeding 1.5% per hour and these wells were excluded from the analysis.
To prepare buparlisib transport assay samples for LC-MS/MS analysis, 10 μL medium samples were mixed with 30 μL of acetonitrile:formic acid (100:1 v/v). After centrifugation, the supernatant was 5-fold diluted in water and the buparlisib concentration was measured using an LC-MS/MS system as described below.

[1] = biological target: T1, murine BCRP (Abcg2/Bcrp1) (Mus musculus, UniProt Q7TMS5); assay: Concentration equilibrium transport assay (CETA), MDCK-Bcrp1; type: in vitro ADME; conditions: MDCK-Bcrp1, 100 nM
T1 construct: expressed in transfected cells; host or cells: MDCK (MDCK-Bcrp1)
T1 sequence (Q7TMS5 1-657): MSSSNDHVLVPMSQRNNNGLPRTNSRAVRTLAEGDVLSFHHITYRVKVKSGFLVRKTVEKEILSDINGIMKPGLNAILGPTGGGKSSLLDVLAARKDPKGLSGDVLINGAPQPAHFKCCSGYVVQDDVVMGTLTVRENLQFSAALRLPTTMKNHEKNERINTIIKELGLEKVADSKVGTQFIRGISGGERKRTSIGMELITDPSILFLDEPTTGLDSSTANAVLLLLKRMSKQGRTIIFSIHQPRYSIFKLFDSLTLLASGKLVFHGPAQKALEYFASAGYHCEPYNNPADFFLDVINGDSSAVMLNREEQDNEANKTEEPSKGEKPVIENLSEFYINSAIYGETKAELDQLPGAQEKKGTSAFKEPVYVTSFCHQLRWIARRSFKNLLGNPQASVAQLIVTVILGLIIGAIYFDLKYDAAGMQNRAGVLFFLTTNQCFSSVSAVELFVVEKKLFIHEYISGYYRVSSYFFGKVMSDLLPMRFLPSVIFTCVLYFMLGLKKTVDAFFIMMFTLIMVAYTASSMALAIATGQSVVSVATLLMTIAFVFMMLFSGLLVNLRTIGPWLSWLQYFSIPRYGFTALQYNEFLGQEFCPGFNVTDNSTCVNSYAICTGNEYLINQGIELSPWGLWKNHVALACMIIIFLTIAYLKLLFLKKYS
Description: Figure 1 Analysis of buparlisib substrate affinity for ABC transporters using in vitro transport assays. (A) The chemical structure of buparlisib. (B) A conventional transport assay (CTA) using LLC-PK1 cells in presence of zosuquidar to block endogenous (porcine) P-gp activity. […] (C) Concentration equilibrium transport assays (CETAs) using MDCK or LLC cells that overexpress murine BCRP, (Bcrp1), human BCRP, murine P-gp (Mdr1a) or human P-gp (MDR1). […] The P-gp inhibitor zosuquidar was used in all MDCK cell lines to inhibit endogenous P-gp activity and in LLC cell lines to validate possible P-gp-mediated translocations. […]
as §1, with “analysis. […]” for “analysis.”
As described in detail before, CETA results were analysed with the General linear model repeated measures procedure of SPSS (v22; SPSS Inc, Chicago, IL)[25]. […] The standard error of the oral bioavailability was calculated using the formula below: SEF=F(SEAUCp.o./AUCp.o.)^2+(SEAUCi.v./AUCi.v.)^2 Buparlisib concentrations in WT and transporter knockout mice in vivo were compared using one-way analysis of variance followed by post hoc Bonferroni tests. […]

Structure (SMILES): Nc1cc(C(F)(F)F)c(-c2cc(N3CCOCC3)nc(N3CCOCC3)n2)cn1 [buparlisib]
- time to plateau to almost complete equilibrium between apical and basal compartments (LLC-PK1 cells): ≤ 4 h
- substrate of murine BCRP [1]: very weak substrate
